In assay [1] the target is T1, CYP4F3A (Homo sapiens, UniProt Q08477).
T1 sequence (Q08477 1-520): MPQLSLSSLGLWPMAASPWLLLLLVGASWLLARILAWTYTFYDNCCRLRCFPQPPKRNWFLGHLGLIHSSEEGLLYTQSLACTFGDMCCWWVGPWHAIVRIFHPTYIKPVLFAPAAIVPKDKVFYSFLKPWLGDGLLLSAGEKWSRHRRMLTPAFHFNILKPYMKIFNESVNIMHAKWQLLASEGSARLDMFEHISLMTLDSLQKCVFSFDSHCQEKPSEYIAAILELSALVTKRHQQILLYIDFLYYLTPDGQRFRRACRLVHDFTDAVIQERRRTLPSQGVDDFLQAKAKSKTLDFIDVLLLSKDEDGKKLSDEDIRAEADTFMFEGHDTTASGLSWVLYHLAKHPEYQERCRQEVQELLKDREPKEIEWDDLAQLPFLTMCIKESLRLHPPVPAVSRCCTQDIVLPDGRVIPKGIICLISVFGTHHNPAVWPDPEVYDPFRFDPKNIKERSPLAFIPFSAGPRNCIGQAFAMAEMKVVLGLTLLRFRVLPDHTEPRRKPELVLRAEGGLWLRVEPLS
Nature of the assay: recombinant CYP4F3A LTB4 omega-oxidation assay, HPLC; Michaelis-Menten and Lineweaver-Burk kinetics. Details: gene CYP4F3; human recombinant CYP4F3A. It counts as biochemical.

Assay [2] addresses T1, CYP4F3A. Details: gene CYP4F3.

For the compound `CCc1cncnc1N1CCN(Cc2nc3cc(C(F)(F)F)ccc3[nH]2)CC1` [PF-4708671], the IC50 in assay [1] was roughly 750 nM. In the case of `CCCCC/C=C\C[C@@H](O)/C=C/C=C/C=C\[C@@H](O)CCCC(=O)O` [LTB4], the “omega-oxidation of LTB4 (1-20 uM) by recombinant CYP4F3A, HPLC, Michaelis-Menten” value in assay [2] was “Human recombinant CYP4F3A was incubated with increasing concentrations of PF-4708671 before the addition of LTB4 at different concentrations”.

Usually IC50 stands for the point on the concentration scale where inhibition reaches its midpoint.

Values taken from PMC5222342, “Leukotriene B₄ Metabolism and p70S6 Kinase 1 Inhibitors: PF-4708671 but Not LY2584702 Inhibits CYP4F3A and the ω-Oxidation of Leukotriene B₄ In Vitro and In Cellulo” (PLoS ONE, 2017).
